What was measured:
[1] = target: Purine nucleoside phosphorylase (Bos taurus) (UniProt P55859); test: Inhibition of calf spleen PNP (purine nucleoside phosphorylase) in 1 mM phosphate
[2] = target: Purine nucleoside phosphorylase (Bos taurus) (UniProt P55859); test: Inhibition of calf spleen PNP (purine nucleoside phosphorylase) in 50 mM phosphate

Sequence of Purine nucleoside phosphorylase (Bos taurus) (P55859 whole entry, looked up): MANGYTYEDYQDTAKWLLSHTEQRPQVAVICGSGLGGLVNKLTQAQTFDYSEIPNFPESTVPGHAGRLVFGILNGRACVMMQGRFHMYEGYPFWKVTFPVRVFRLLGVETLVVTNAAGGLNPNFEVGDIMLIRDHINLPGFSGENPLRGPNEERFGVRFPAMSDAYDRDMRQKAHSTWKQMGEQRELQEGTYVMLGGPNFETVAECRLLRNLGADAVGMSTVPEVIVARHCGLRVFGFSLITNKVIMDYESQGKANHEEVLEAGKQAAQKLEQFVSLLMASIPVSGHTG

Row | SMILES | IC50 [1] [µM] | IC50 [2] [µM]
1 | CC(C)(CCS)CCn1cnc2c(=S)[nH]c(N)nc21 [2-Amino-9-(5-mercapto-3,3-dimethyl-pentyl)-1,9-dihydro-purine-6-thione] | 50 | 95
2 | CC(C)(CCn1cnc2c(=O)[nH]c(N)nc21)CCS(=O)(=O)O [5-(2-Amino-6-oxo-1,6-dihydro-purin-9-yl)-3,3-dimethyl-pentane-1-sulfonic acid] | 0.18 | 9
3 | CC(C)(CCn1cnc2c(=O)[nH]c(N)nc21)CCP(=O)(O)O [[5-(2-Amino-6-oxo-1,6-dihydro-purin-9-yl)-3,3-dimethyl-pentyl]-phosphonic acid] | 0.044 | 2

More lines, in order of falling IC50 [1], values ahead:

Row | IC50 [1] [µM] | IC50 [2] [µM] | SMILES
4 | 260 | > 300 | CC(C)(CCC#N)CCn1cnc2c(=O)[nH]c(N)nc21 [6-(2-Amino-6-oxo-1,6-dihydro-purin-9-yl)-4,4-dimethyl-hexanenitrile]
5 | 200 | > 300 | CC(C)(CCC(N)=O)CCn1cnc2c(=O)[nH]c(N)nc21 [6-(2-Amino-6-oxo-1,6-dihydro-purin-9-yl)-4,4-dimethyl-hexanoic acid amide]
6 | 100 | > 300 | CC(C)(CCn1cnc2c(=O)[nH]c(N)nc21)CCS(N)(=O)=O [5-(2-Amino-6-oxo-1,6-dihydro-purin-9-yl)-3,3-dimethyl-pentane-1-sulfonic acid amide]
7 | 8 | 290 | CC(C)(CCC(=O)O)CCn1cnc2c(=O)[nH]c(N)nc21 [6-(2-Amino-6-oxo-1,6-dihydro-purin-9-yl)-4,4-dimethyl-hexanoic acid]

Reference: BindingDB's records for doi:10.1021/jm00034a008 (Ciba-Geigy, 1994)
